In US9884063B2, “Amido-substituted azole compounds” (Bayer Pharma Aktiengesellschaft, priority 2014, dated 2018):

What was measured:
TNKS2 = biological target: T1, TNKS2 (Homo sapiens, UniProt Q9H2K2); experiment: Modified TNKS2 Assay 3 (BPS kit #80578, biotin-NAD+, 96 well); assay type: biochemical; conditions: human TNKS2, BPS kit #80578, 96 well
T1 sequence (Q9H2K2 1-1166): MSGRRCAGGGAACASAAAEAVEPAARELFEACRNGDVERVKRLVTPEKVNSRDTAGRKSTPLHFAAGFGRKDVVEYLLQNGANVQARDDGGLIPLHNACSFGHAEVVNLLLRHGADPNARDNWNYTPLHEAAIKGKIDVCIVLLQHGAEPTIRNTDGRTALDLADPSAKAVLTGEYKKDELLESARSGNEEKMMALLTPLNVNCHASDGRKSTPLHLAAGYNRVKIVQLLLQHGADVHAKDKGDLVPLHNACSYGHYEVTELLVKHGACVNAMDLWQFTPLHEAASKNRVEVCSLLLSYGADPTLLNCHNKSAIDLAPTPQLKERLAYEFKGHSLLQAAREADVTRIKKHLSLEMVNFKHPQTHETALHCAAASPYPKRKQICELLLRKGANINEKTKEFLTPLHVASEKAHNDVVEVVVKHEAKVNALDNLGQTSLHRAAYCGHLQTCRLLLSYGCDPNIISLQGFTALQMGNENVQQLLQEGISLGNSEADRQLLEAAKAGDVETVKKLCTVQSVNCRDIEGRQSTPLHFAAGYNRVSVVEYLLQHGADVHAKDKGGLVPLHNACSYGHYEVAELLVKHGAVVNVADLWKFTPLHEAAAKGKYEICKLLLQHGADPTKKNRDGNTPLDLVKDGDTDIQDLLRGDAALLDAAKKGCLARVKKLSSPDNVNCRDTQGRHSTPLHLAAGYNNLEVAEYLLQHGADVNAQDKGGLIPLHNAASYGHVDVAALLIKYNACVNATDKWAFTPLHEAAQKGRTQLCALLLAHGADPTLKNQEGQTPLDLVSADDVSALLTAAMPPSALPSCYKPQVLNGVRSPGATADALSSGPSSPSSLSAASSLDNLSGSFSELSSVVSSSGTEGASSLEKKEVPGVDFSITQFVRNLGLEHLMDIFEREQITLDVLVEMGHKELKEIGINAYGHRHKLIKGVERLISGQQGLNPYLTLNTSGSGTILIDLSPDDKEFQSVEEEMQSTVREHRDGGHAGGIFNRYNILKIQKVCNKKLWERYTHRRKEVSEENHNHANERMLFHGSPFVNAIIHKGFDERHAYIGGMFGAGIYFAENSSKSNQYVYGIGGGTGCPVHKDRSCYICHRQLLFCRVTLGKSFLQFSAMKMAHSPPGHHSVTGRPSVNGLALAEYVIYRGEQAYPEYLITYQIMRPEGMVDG
Protocol: The potency of the compounds against human TNKS2 according to the invention was assessed using a commercially available biotin/streptavidin binding assay kits from BPS Bioscience, San Diego, USA (Catalog #80578 for TNKS2). The incorporation of a biotin-labeled NAD+ during the […] catalyzed ribosylation of a suitable protein substrate was detected using with a streptavidin-HRP coupled chemi-luminescent readout. The intensity of the readout signal is proportional to the incorporated NAD^+. Inhibition of TNKS2 leads to a decreased incorporation of NAD^+ and consequently to a lower readout signal intensity in the corresponding TNKS2 assays. The concentration of a test compound that inhibits the enzyme activity by 50% (corresponds to half of the normed readout signal intensity) is reported as IC50. The assay conducted in a 96 well MTP format according to the manufacturer's protocol and using a BMG Pherastar MTP reader [BMG-Labtech, Offenburg, Germany].

[1] = test system: HEK293 FOP control reporter cell line; experiment: HEK293 FOP Assay (FOP control vector luciferase reporter); assay type: cell-based; conditions: Homo sapiens; HEK293 FOP control reporter cell line, 16 hours incubation, compound dilution series 50 μM to 15 nM
How it was run: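 Stable HEK293 line carrying the FOP vector (randomized, non-functional TCF sites; Geneticin-selected) was run in parallel with the TOP line. Cells were plated 24 h ahead at 10000/well and given recombinant human Wnt-3a at 2500–5 ng/ml. Compounds were tested at 50 μM–15 nM (3.16-fold steps) in CAFTY buffer, pH 7.4, with 2 mM Ca2+ and 0.01% BSA.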

[2] = test system: wildtype Wnt signaling cascade; experiment: HEK293 TOP Assay (Super TopFlash luciferase reporter, Wnt-3a stimulated); assay type: cell-based; conditions: Homo sapiens, HEK293, 16 h, HEK293 TOP reporter cell line, Wnt-3a at EC50, 16 hours incubation, compound dilution series 50 μM to 15 nM
How it was run: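 HEK293 cells stably carrying Super TopFlash (TOP) or FOP reporter, stimulated with recombinant human Wnt-3a (2500–5 ng/ml, two-fold steps). Both lines incubated in parallel with compound from 50 μM to 15 nM (3.16-fold) in CAFTY buffer pH 7.4 with 2 mM Ca2+ and 0.01% BSA; selectivity judged TOP vs FOP.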

SMILES	IC50 (TNKS2)	IC50 [2]	IC50 [1]
CC1CCCCN1CCNC(=O)c1[nH]cnc1C(=O)Nc1ccc(NC(=O)c2ccccc2Cl)cc1 (stereo not shown) [Example 153, N^4-{4-[(2-chlorobenzoyl)amino]phenyl}-N^5-[2-(2-methylpiperidin-1-yl)ethyl]-1H-imidazole-4,5-dicarboxamide]	5 nM	190 nM	35000 nM
CC(CN1CCOCC1)NC(=O)c1[nH]cnc1C(=O)Nc1ccc(NC(=O)c2ccccc2Cl)cc1 (stereo not shown) [Example 162, N^4-{4-[(2-chlorobenzoyl)amino]phenyl}-N^5-[1-(morpholin-4-yl)propan-2-yl]-1H-imidazole-4,5-dicarboxamide]	20 nM	270 nM	
CC1CCN(CCNC(=O)c2[nH]cnc2C(=O)Nc2ccc(NC(=O)c3ccccc3Cl)cc2)CC1 [Example 163, N^4-{4-[(2-chlorobenzoyl)amino]phenyl}-N^5-[2-(4-methylpiperidin-1-yl)ethyl]-1H-imidazole-4,5-dicarboxamide]	10 nM	100 nM	37000 nM
CC(CNC(=O)c1[nH]cnc1C(=O)Nc1ccc(NC(=O)c2ccc(F)cc2Cl)cc1)N1CCN(C)CC1 (stereo not shown) [Example 185, N^4-{4-[(2-chloro-4-fluorobenzoyl)amino]phenyl}-N^5-[2-(4-methylpiperazin-1-yl)propyl]-1H-imidazole-4,5-dicarboxamide]	20 nM	200 nM	
O=C(Nc1ccc(NC(=O)c2nc[nH]c2C(=O)NCCCCN2CCCCC2)cc1)c1ccc(F)cc1Cl [Example 196, N^4-{4-[(2-chloro-4-fluorobenzoyl)amino]phenyl}-N^5-[4-(piperidin-1-yl)butyl]-1H-imidazole-4,5-dicarboxamide]	20 nM	650 nM	30000 nM
O=C(Nc1ccc(NC(=O)c2nc[nH]c2C(=O)NCCCN2CCOCC2)cc1)c1ccc(F)cc1Cl [Example 204, N^4-{4-[(2-chloro-4-fluorobenzoyl)amino]phenyl}-N^5-[3-(morpholin-4-yl)propyl]-1H-imidazole-4,5-dicarboxamide]	20 nM	310 nM	34500 nM
O=C(Nc1ccc(NC(=O)c2nc[nH]c2C(=O)NCCN2CCCC(O)C2)cc1)c1ccc(F)cc1Cl (stereo not shown) [Example 229, N^4-{4-[(2-chloro-4-fluorobenzoyl)amino]phenyl}-N^5-[2-(3-hydroxypiperidin-1-yl)ethyl]-1H-imidazole-4,5-dicarboxamide]	4 nM	110 nM	44500 nM

Stronger by IC50 (TNKS2), values ahead:

IC50 (TNKS2)	IC50 [2]	SMILES	IC50 [1]
< 0.5 nM	80 nM	O=C(Nc1ccc(NC(=O)c2nc[nH]c2C(=O)NCCN2CCCC2)cc1)c1ccccc1Cl [Example 168, N^4-{4-[(2-chlorobenzoyl)amino]phenyl}-N^5-[2-(pyrrolidin-1-yl)ethyl]-1H-imidazole-4,5-dicarboxamide]	27000 nM
2 nM	180 nM	CC(CNC(=O)c1[nH]cnc1C(=O)Nc1ccc(NC(=O)c2ccc(F)cc2Cl)cc1)N1CCCCC1 (stereo not shown) [Example 170, N^4-{4-[(2-chloro-4-fluorobenzoyl)amino]phenyl}-N^5-[2-(piperidin-1-yl)propyl]-1H-imidazole-4,5-dicarboxamide]	
2 nM	190 nM	O=C(Nc1ccc(NC(=O)c2nc[nH]c2C(=O)NCCN2CCC2)cc1)c1ccccc1Cl [Example 190, N^5-[2-(azetidin-1-yl)ethyl]-N4-{4-[(2-chlorobenzoyl)amino]phenyl}-1H-imidazole-4,5-dicarboxamide]	18000 nM
2 nM	40 nM	CC1CCCCN1CCNC(=O)c1[nH]cnc1C(=O)Nc1ccc(NC(=O)c2ccc(F)cc2Cl)cc1 (stereo not shown) [Example 191, N^4-{4-[(2-chloro-4-fluorobenzoyl)amino]phenyl}-N^5-[2-(2-methylpiperidin-1-yl)ethyl]-1H-imidazole-4,5-dicarboxamide]	31000 nM
1 nM	140 nM	O=C(Nc1ccc(NC(=O)c2nc[nH]c2C(=O)NCCN2CCC(O)CC2)cc1)c1ccccc1Cl [Example 197, N^4-{4-[(2-chlorobenzoyl)amino]phenyl}-N^5-[2-(4-hydroxypiperidin-1-yl)ethyl]-1H-imidazole-4,5-dicarboxamide]	
< 0.5 nM	110 nM	O=C(Nc1ccc(NC(=O)c2nc[nH]c2C(=O)NCCN2CCC2)cc1)c1ccc(F)cc1Cl [Example 198, N^5-[2-(azetidin-1-yl)ethyl]-N^4-{4-[(2-chloro-4-fluorobenzoyl)amino]phenyl}-1H-imidazole-4,5-dicarboxamide]	
2 nM	180 nM	CN1CCN(CCNC(=O)c2[nH]cnc2C(=O)Nc2ccc(NC(=O)c3ccc(F)cc3Cl)cc2)CC1 [Example 238, N^4-{4-[(2-chloro-4-fluorobenzoyl)amino]phenyl}-N^5-[2-(4-methylpiperazin-1-yl)ethyl]-1H-imidazole-4,5-dicarboxamide]	29000 nM
